Test results from patent US8299079B2, “Preparations and methods for ameliorating or reducing presbyopia” (priority 2009, dated 2012).
Several values for one entry are separate records, joined by “and”; a condition that tells them apart may be missing. Identical values can stand only once.

How the values were obtained:
[1] = test system: pupil diameter of patients suffering from presbyopia; experiment: Preliminary evaluation: pupil diameter after pilocarpine alone or with brimonidine; format: in vivo, human
Procedure: (§1) The effect of pilocarpine alone or in combination with brimonidine on near visual acuity (VA) for patients suffering from presbyopia was evaluated. Initially, 10 patients were selected for preliminary evaluation. Each patient was administered with one drop of a formulation containing 0.25%, 0.5%, or 1.0% pilocarpine with or without one drop of a formulation containing 0.2% brimonidine. Thus, the following six dosages were initially tested: • 1. 0.25% pilocarpine, • 2. 0.5% pilocarpine, • 3. 1.0% pilocarpine, • 4. 0.25% pilocarpine and 0.2% brimonidine, • 5. 0.5% pilocarpine and 0.2% brimonidine, and • 6. 1.0% pilocarpine and 0.2% brimonidine.

[2] = test system: near visual acuity (VA) for patients suffering from presbyopia; experiment: Preliminary evaluation: near visual acuity after pilocarpine alone or with brimonidine; format: in vivo, human
Procedure: as §1

Compound	effect on the pupil (potentiation of pilocarpine) ([1]; brimonidine combined with pilocarpine)	Pupil ([1]; Pilo alone 0.25%, 1 hr)	Pupil ([1]; Pilo alone 0.25%, 2 hrs)	Pupil ([1]; Pilo alone 0.25%, 4 hrs)	Pupil ([1]; Pilo alone 0.5%, 1 hr)	Pupil ([1]; Pilo alone 0.5%, 2 hrs)	Pupil ([1]; Pilo alone 0.5%, 4 hrs)	Pupil ([1]; Pilo alone 1%, 1 hr)	Pupil ([1]; Pilo alone 1%, 2 hrs)	Pupil ([1]; Pilo alone 1%, 4 hrs)	duration of effect on visual acuity (wear out) ([2]; 1, 2, 4 hrs after administration)	nVA ([2]; Pilo alone 0.25%, 2 hrs)	nVA ([2]; Pilo alone 0.5%, 1 hr)	nVA ([2]; Pilo alone 0.5%, 2 hrs)	nVA ([2]; Pilo alone 0.5%, 4 hrs)
Brc1c(NC2=NCCN2)ccc2nccnc12 [brimonidine]	potentiates the effect of pilocarpine on the pupil														
CC[C@@H]1C(=O)OC[C@@H]1Cc1cncn1C [Pilo Alone, pilocarpine]		3 and 3.5 and 2.5 and 3.3	4 and 3.5 and 3	4	2.5 and 3.8 and 3	3 and 4 and 2.5 and 3.3	3.3 and 4 and 3 and 4.2	2.5 and 1.5 and 3	3 and 1.5 and 2.5	4 and 2.5 and 3	appears to wear out fairly quickly	3 J and 5 J and 6 J	3 J and 6 J and 5 J	5 J and 3 J	5 J and 3 J
